Holding throughout (format): functional
For experiment [1], the system named is Botrytis cinerea. Briefly: Fungicidal activity against Botryotinia fuckeliana infected cucumber plant at 500 ppm by foliar application.
Experiment [2] relates to Podosphaera fuliginea. Briefly: Fungicidal activity against Podosphaera fuliginea infected cucumber plant at 7.8 ppm by foliar application.
In experiment [3] the test system is Podosphaera fuliginea. Description: Preventive fungicidal activity against Podosphaera fuliginea infected cucumber plant at 31.3 ppm by foliar application.
Experiment [4] has as its system Podosphaera fuliginea. Briefly: Curative fungicidal activity against Podosphaera fuliginea infected cucumber plant at 31.3 ppm by foliar application.
For experiment [5], the system named is Podosphaera fuliginea. Briefly: Preventive fungicidal activity against Podosphaera fuliginea infected cucumber plant at 7.8 ppm by foliar application.
Experiment [6] deals with Botrytis cinerea. Description: Curative fungicidal activity against Botryotinia fuckeliana infected cucumber plant at 31.3 ppm by foliar application.
Experiment [7] has as its system Botrytis cinerea. Description: Preventive fungicidal activity against Botryotinia fuckeliana infected cucumber plant at 7.8 ppm by foliar application.
Experiment [8] has as its system Botrytis cinerea. Briefly: Fungicidal activity against Botryotinia fuckeliana infected cucumber plant at 7.8 ppm by foliar application.
The test system of experiment [9] is Podosphaera fuliginea. Description: Curative fungicidal activity against Podosphaera fuliginea infected cucumber plant at 7.8 ppm by foliar application.
For experiment [10], the system named is Botrytis cinerea. Briefly: Preventive fungicidal activity against Botryotinia fuckeliana infected cucumber plant at 31.3 ppm by foliar application.
Experiment [11] has as its system Botrytis cinerea. Briefly: Curative fungicidal activity against Botryotinia fuckeliana infected cucumber plant at 7.8 ppm by foliar application.
Experiment [12] concerns Podosphaera fuliginea. Description: Fungicidal activity against Podosphaera fuliginea infected cucumber plant at 500 ppm by foliar application.
Experiment [13] concerns Podosphaera fuliginea. Description: Fungicidal activity against Podosphaera fuliginea infected cucumber plant at 31.3 ppm by foliar application.
The test system of experiment [14] is Botrytis cinerea. Briefly: Fungicidal activity against Botryotinia fuckeliana infected cucumber plant at 125 ppm by foliar application.
Experiment [15] concerns Podosphaera fuliginea. Briefly: Fungicidal activity against Podosphaera fuliginea infected cucumber plant at 125 ppm by foliar application.
Experiment [16] deals with Botrytis cinerea. Description: Fungicidal activity against Botryotinia fuckeliana infected cucumber plant at 31.3 ppm by foliar application.

Where only a bound is given, the exact number is not on record here.

Consider `CO/N=C(/c1nnco1)c1ccccc1COc1ccc(Cl)cc1Cl`, for which the Activity was less than 50% in the experiment on Botrytis cinerea [1] and 90% in the experiment with Podosphaera fuliginea [2].
Take `CO/N=C(\c1ccccc1COc1ccc(Cl)cc1C)c1nccn1C`: the Activity in the experiment on Podosphaera fuliginea [3] came out at 100%; in the experiment on Podosphaera fuliginea [4], 100%; in the experiment with Podosphaera fuliginea [5], 100%; with Botrytis cinerea [6] it was 55%; with Podosphaera fuliginea [2] it was 90%; with Botrytis cinerea [7], 60%. Besides, the Activity in the experiment on Botrytis cinerea [8] is recorded as less than 90%; in the experiment with Podosphaera fuliginea [9], 100%; with Botrytis cinerea [10], 55%; in the experiment on Botrytis cinerea [11], 55%.
`CO/N=C(/c1ncn[nH]1)c1ccccc1COc1cc(C)ccc1C`: the results for the Activity with Botrytis cinerea [1] and with Podosphaera fuliginea [12] were less than 50% and less than 90%, respectively.
On to `CO/N=C(\c1ccccc1COc1cc(C)ccc1C)c1ncnn1C`, for which the Activity in the experiment on Botrytis cinerea [1] is on record as less than 50%; with Podosphaera fuliginea [12], less than 90%.
The matching figures for `CO/N=C(\c1ccccc1COc1cc(C)ccc1C)c1nnnn1C`: less than 50% and less than 90%.
As to `CO/N=C(/c1ncno1)c1ccccc1COc1cc(C)ccc1C`, the Activity in the experiment on Botrytis cinerea [1] is given as less than 50%; in the experiment on Podosphaera fuliginea [12] it was less than 90%.
On to `CO/N=C(/c1ncon1)c1ccccc1COc1cc(C)ccc1C`, for which the figures for the Activity with Botrytis cinerea [1] and with Podosphaera fuliginea [13] were less than 50% and 90%, respectively.
Consider `CO/N=C(/c1noc(C)n1)c1ccccc1COc1cc(C)ccc1C`, for which the Activity in the experiment on Botrytis cinerea [1] was less than 50%; in the experiment on Podosphaera fuliginea [13] it was 90%.
For `CO/N=C(/c1nnco1)c1ccccc1COc1cc(C)ccc1C`, the Activity is listed as 90% in the experiment on Podosphaera fuliginea [2] and less than 90% in the experiment with Botrytis cinerea [14].
`CO/N=C(/c1nnc(C)o1)c1ccccc1COc1cc(C)ccc1C`: the Activity in the experiment with Botrytis cinerea [1] was less than 50%; in the experiment with Podosphaera fuliginea [2] it was 90%.
`CO/N=C(\c1ccccc1COc1cc(C)ccc1C)c1snnc1C`: the Activity in the experiment with Botrytis cinerea [1] was less than 50%; with Podosphaera fuliginea [15], 90%.
With `CO/N=C(\c1ccccc1COc1ccccc1)c1nccn1C`, the Activity is reported as less than 50% in the experiment on Botrytis cinerea [1] and 90% in the experiment with Podosphaera fuliginea [12].
For `CO/N=C(\c1ccccc1COc1ccccc1Cl)c1nccn1C`, the Activity with Botrytis cinerea [1] is less than 50%; with Podosphaera fuliginea [2] it was 90%.
For `CO/N=C(\c1ccccc1COc1cccc(Cl)c1)c1nccn1C` the same measures were less than 50% and 90%.
For `CO/N=C(\c1ccccc1COc1ccc(Cl)cc1)c1nccn1C` the same measures were less than 50% and 90%.
In the case of `CO/N=C(\c1ccccc1COc1ccccc1C)c1nccn1C`, the Activity is 90% in the experiment on Podosphaera fuliginea [2] and less than 90% in the experiment on Botrytis cinerea [14].
In the case of `CO/N=C(\c1ccccc1COc1cccc(C)c1)c1nccn1C`, the values for the Activity with Botrytis cinerea [1] and with Podosphaera fuliginea [15] were less than 50% and 90%, respectively.
Consider `CO/N=C(\c1ccccc1COc1ccc(C)cc1)c1nccn1C`, for which the Activity is recorded as less than 50% in the experiment with Botrytis cinerea [1] and 90% with Podosphaera fuliginea [2].
In the case of `CO/N=C(\c1ccccc1COc1ccccc1OC)c1nccn1C`, the Activity was less than 50% in the experiment on Botrytis cinerea [1] and 90% with Podosphaera fuliginea [12].
On to `CO/N=C(\c1ccccc1COc1ccc(Cl)cc1Cl)c1nccn1C`, for which the Activity in the experiment on Botrytis cinerea [1] was less than 50%; in the experiment with Podosphaera fuliginea [2] it was 90%.
`CO/N=C(\c1ccccc1COc1cc(Cl)ccc1Cl)c1nccn1C`: the Activity is less than 50% in the experiment with Botrytis cinerea [1] and 90% in the experiment with Podosphaera fuliginea [2].
Consider `CO/N=C(/c1nnco1)c1ccccc1COc1ccccc1`, for which the Activity is listed as less than 50% in the experiment with Botrytis cinerea [1] and 90% in the experiment on Podosphaera fuliginea [13].
For `CO/N=C(/c1nnco1)c1ccccc1COc1ccccc1Cl` the same measures were less than 50% and 90%.
`CO/N=C(/c1nnco1)c1ccccc1COc1cccc(Cl)c1`: the Activity with Botrytis cinerea [1] is less than 50%; with Podosphaera fuliginea [15] it was 90%.
Turning to `CO/N=C(/c1nnco1)c1ccccc1COc1ccc(Cl)cc1`, the results for the Activity in the experiment on Botrytis cinerea [1] and with Podosphaera fuliginea [12] were less than 50% and 90%, respectively.
In the case of `CO/N=C(/c1nnco1)c1ccccc1COc1ccccc1C`, the results for the Activity with Podosphaera fuliginea [2] and in the experiment on Botrytis cinerea [14] were 90% and less than 90%, respectively.
In the case of `CO/N=C(/c1nnco1)c1ccccc1COc1cccc(C)c1`, the Activity with Botrytis cinerea [1] is less than 50%; in the experiment on Podosphaera fuliginea [15] it was 90%.
In the case of `CO/N=C(/c1nnco1)c1ccccc1COc1ccccc1OC`, the Activity with Botrytis cinerea [1] is reported as less than 50%; in the experiment with Podosphaera fuliginea [12], 90%.
Turning to `CO/N=C(/c1nnco1)c1ccccc1COc1cc(Cl)ccc1Cl`, the Activity with Botrytis cinerea [1] is given as less than 50%; in the experiment on Podosphaera fuliginea [2], 90%.
For the molecule `CO/N=C(/c1nnco1)c1ccccc1COc1ccc(Cl)cc1C`, the Activity turned out to be 100% with Podosphaera fuliginea [3]; 100% with Podosphaera fuliginea [4]; 100% in the experiment with Podosphaera fuliginea [5]; 50% in the experiment on Botrytis cinerea [6]; 90% in the experiment with Podosphaera fuliginea [2]; 30% in the experiment on Botrytis cinerea [7]. Moreover, the Activity in the experiment with Botrytis cinerea [16] is less than 90%; with Podosphaera fuliginea [9] it was 100%; in the experiment on Botrytis cinerea [10], 65%; in the experiment with Botrytis cinerea [11], 30%.
Turning to `CO/N=C(/c1ccccc1COc1ccc(Cl)cc1C)c1nccn1C`, the Activity in the experiment on Botrytis cinerea [1] is recorded as less than 50%; in the experiment on Podosphaera fuliginea [12], 90%.
In the case of `CO/N=C(\c1nnco1)c1ccccc1COc1ccc(Cl)cc1C`, the results for the Activity in the experiment on Botrytis cinerea [1] and in the experiment on Podosphaera fuliginea [15] were less than 50% and 90%, respectively.
Turning to `CO/N=C(/c1ccon1)c1ccccc1COc1ccc(C)cc1C`, the Activity with Podosphaera fuliginea [3] is reported as 100%; in the experiment with Podosphaera fuliginea [4] it was 100%; with Podosphaera fuliginea [5], 100%; in the experiment with Botrytis cinerea [6], 30%; in the experiment on Botrytis cinerea [7], 20%; in the experiment on Podosphaera fuliginea [9], 100%. Moreover, the Activity in the experiment with Botrytis cinerea [10] turned out to be 40%; in the experiment with Botrytis cinerea [11] it was 30%.
`CON=C(c1ccco1)c1ccccc1COc1cc(C)ccc1C` (mixture of isomers): the Activity is less than 50% with Botrytis cinerea [1] and 90% in the experiment on Podosphaera fuliginea [12].
For `CON=C(c1cccs1)c1ccccc1COc1cc(C)ccc1C` (mixture of isomers) the same measures were less than 50% and less than 90%.
As to `CON=C(c1ccccc1COc1cc(C)ccc1C)c1ccnn1C` (mixture of isomers), the Activity with Botrytis cinerea [1] was less than 50%; with Podosphaera fuliginea [12], less than 90%.
On to `CON=C(c1ccccc1COc1cc(C)ccc1C)c1nccn1C` (mixture of isomers), for which the Activity in the experiment with Podosphaera fuliginea [2] is on record as 90%; with Botrytis cinerea [16], less than 90%.
Turning to `CON=C(c1cnco1)c1ccccc1COc1cc(C)ccc1C` (mixture of isomers), the Activity in the experiment with Botrytis cinerea [1] was less than 50%; in the experiment on Podosphaera fuliginea [12], 90%.
The matching figures for `CON=C(c1nccs1)c1ccccc1COc1cc(C)ccc1C` (mixture of isomers): less than 50% and less than 90%.
With `CON=C(c1cc(C)ns1)c1ccccc1COc1cc(C)ccc1C` (mixture of isomers), the results for the Activity in the experiment on Botrytis cinerea [1] and in the experiment with Podosphaera fuliginea [12] were less than 50% and less than 90%, respectively.
Turning to `CNC(=O)/C(=N/OC)c1ccccc1Oc1ccccc1` [METOMINOSTROBIN], the Activity came out at 100% with Podosphaera fuliginea [3]; 97% in the experiment with Podosphaera fuliginea [4]; 70% in the experiment with Podosphaera fuliginea [5]; 40% in the experiment with Botrytis cinerea [6]; 30% in the experiment on Botrytis cinerea [7]; 70% with Podosphaera fuliginea [9]. Besides, the Activity is given as 55% in the experiment on Botrytis cinerea [10] and 30% in the experiment with Botrytis cinerea [11].
